Results published in patent US20240279207A1, “SUBSTITUTED ACYL SULFONAMIDES FOR TREATING CANCER” (The Broad Institute, Inc., priority 2020, published 2024).

Key:
[1] = target: T1, Recombinant human His-tagged Kat6a protein (amino acids 194-810) (Homo sapiens, UniProt Q92794); assay: Kat6a activity assay (TR-FRET, acetylation of Histone-H4-derived peptide); type: biochemical; details: 60 mins at 22° C., 220 nM H4 peptide, 600 nM Acetyl Coenzyme A, read-out: KAT6A - DPF/HAT domain IC50 [mol/l] (arithmetic mean)
T1 construct: Kat6a protein (amino acids 194-810); His
T1 sequence (Q92794 194-810): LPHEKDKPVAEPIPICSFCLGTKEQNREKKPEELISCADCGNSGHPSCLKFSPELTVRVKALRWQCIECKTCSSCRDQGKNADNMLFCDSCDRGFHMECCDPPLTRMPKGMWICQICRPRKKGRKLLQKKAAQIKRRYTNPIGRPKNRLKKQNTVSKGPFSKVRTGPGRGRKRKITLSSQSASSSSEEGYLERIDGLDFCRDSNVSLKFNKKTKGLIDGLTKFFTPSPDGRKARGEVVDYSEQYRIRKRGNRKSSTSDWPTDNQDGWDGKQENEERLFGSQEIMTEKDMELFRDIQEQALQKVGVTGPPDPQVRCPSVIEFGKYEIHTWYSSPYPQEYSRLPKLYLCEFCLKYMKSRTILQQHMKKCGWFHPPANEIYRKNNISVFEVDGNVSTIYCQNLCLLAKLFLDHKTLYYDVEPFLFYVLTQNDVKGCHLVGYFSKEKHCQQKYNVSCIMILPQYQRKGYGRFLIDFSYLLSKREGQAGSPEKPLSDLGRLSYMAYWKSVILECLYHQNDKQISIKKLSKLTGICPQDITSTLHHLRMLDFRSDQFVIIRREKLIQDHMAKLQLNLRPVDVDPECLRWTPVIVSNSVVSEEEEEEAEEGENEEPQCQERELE
Method: Kat6a inhibitory activities of the compounds described in the present invention were quantified using a Fluorescence Resonance Energy Transfer (TR-FRET) assay which measures acetylation of a synthetic, biotinylated Histone-H4-derived peptide by the enzyme.
In this case 50 nl DMSO were used instead of compounds. […] IC50 values were determined by regression analysis based on a 4 parameter equation (minimum, maximum, ICM, Hill; Y=Max+(Min−Max)/(1+(X/ICso) Hill) using the Screener Software (Genedata).

[2] = system: ESR1 transcription in MVLN cells; assay: MVLN reporter assay: repression of ESR1 transcription (luciferase signal); type: cell-based; details: Homo sapiens, MVLN, 24 h, luciferase signal after 24 h, read-out: MVLN reporter assay, IC50 [M] (arithmetic mean)
Description: KAT6A controls transcription of the ESR1 gene in breast cancer cells. Compound treatment that interferes with this mechanism was quantified using MVLN cells. These cells constitutively express the ER and are stably transfected with the luciferase (LUC) reporter gene and the corresponding hormone responsive element derived from the 5′-flanking region of the Xenopus Vitellogenin A2 gene (Pons et al., 1990, Demirpense et al., 1993, Joyeux et al., 1993). The repressive effect on ERα transcription activity of a test chemical is directly related to the luciferase measured in the lysate of treated MVLN cells. […] Each sample was prepared as duplicate and rim wells were excluded. For luciferase signal determination 100 μl of a 1:1 mixture of Steadylite plus (Perkin Elmer; 6016759) and assay medium was added after 24 h for 15 minutes and measured in Victor X3 (Perkin Elmer). To exclude any effects caused by cell loss during the treatment, cell density was determined using Alamar Blue (Invitrogen; DAL1100). Prior to the luciferase measurement 10 μl Alamar Blue were added to each well and the plates were incubated for 2 h in the incubator. Then fluorescence was measured with Victor X3 (Perkin Elmer) at 530 nm/590 nm.

Row | IC50 [1] [nM] | IC50 [2] [M] | SMILES
1 | 181 | 7.04e-07 | Cc1noc(-c2ccccc2S(=O)(=O)NC(=O)c2cc3c(F)cc(N4CCC4)cc3o2)n1 [Example 37, 6-(Azetidin-1-yl)-4-fluoro-N-[2-(3-methyl-1,2,4-oxadiazol-5-yl)benzene-1-sulfonyl]-1-benzofuran-2-carboxamide]
2 | 85.5 | 7.07e-07 | CC(C)c1cc(Br)ccc1S(=O)(=O)NC(=O)c1cc2c(F)cc(N3CCC3)cc2o1 [Example 38, 6-(Azetidin-1-yl)-N-[4-bromo-2-(propan-2-yl)benzene-1-sulfonyl]-4-fluoro-1-benzofuran-2-carboxamide]
3 | 64.2 | 7.89e-07 | CCCc1cccc(S(=O)(=O)NC(=O)c2cc3c(F)cc(N4CCC4)cc3o2)c1 [Example 40, 6-(Azetidin-1-yl)-4-fluoro-N-(3-propylbenzene-1-sulfonyl)-1-benzofuran-2-carboxamide]
4 | 90.1 | 8.57e-07 | Cn1ccc2cccc(S(=O)(=O)NC(=O)c3cc4c(F)cc(N5CCC5)cc4o3)c21 [Example 41, 6-(Azetidin-1-yl)-4-fluoro-N-(1-methyl-1H-indole-7-sulfonyl)-1-benzofuran-2-carboxamide]
5 | 179 | 8.64e-07 | CC(C)Nc1cccc(F)c1S(=O)(=O)NC(=O)c1cc2c(F)cc(N3CCC3)cc2o1 [Example 42, 6-(Azetidin-1-yl)-4-fluoro-N-{2-fluoro-6-[(propan-2-yl)amino]benzene-1-sulfonyl}-1-benzofuran-2-carboxamide]
6 | 218 | 9.91e-07 | Cc1ccc(F)c(S(=O)(=O)NC(=O)c2cc3c(F)cc(N4CCC4)cc3o2)c1 [Example 43, 6-(Azetidin-1-yl)-4-fluoro-N-(2-fluoro-5-methylbenzene-1-sulfonyl)-1-benzofuran-2-carboxamide]
7 | 189 | 1.01e-06 | CCc1noc(-c2ccccc2S(=O)(=O)NC(=O)c2cc3c(F)cc(N4CCC4)cc3o2)n1 [Example 44, 6-(Azetidin-1-yl)-N-[2-(3-ethyl-1,2,4-oxadiazol-5-yl)benzene-1-sulfonyl]-4-fluoro-1-benzofuran-2-carboxamide]
8 | 111 | 1.1e-06 | O=C(NS(=O)(=O)c1ccccc1S(=O)(=O)c1ccccc1)c1cc2c(F)cc(N3CCC3)cc2o1 [Example 45, 6-(Azetidin-1-yl)-N-[2-(benzenesulfonyl)benzene-1-sulfonyl]-4-fluoro-1-benzofuran-2-carboxamide]
9 | 122 | 1.15e-06 | CCNc1ccccc1S(=O)(=O)NC(=O)c1cc2c(F)cc(N3CCC3)cc2o1 [Example 46, 6-(azetidin-1-yl)-N-[2-(ethylamino)benzene-1-sulfonyl]-4-fluoro-1-benzofuran-2-carboxamide]
10 | 109 | 1.3e-06 | CCN(C)C(=O)c1ccccc1S(=O)(=O)NC(=O)c1cc2c(F)cc(N3CCC3)cc2o1 [Example 47, 6-(Azetidin-1-yl)-N-{2-[ethyl(methyl)carbamoyl]benzene-1-sulfonyl}-4-fluoro-1-benzofuran-2-carboxamide]
11 | 281 | 1.29e-06 | COCc1cccc(S(=O)(=O)NC(=O)c2cc3c(F)cc(N4CCC4)cc3o2)c1 [Example 48, 6-(Azetidin-1-yl)-4-fluoro-N-[3-(methoxymethyl)benzene-1-sulfonyl]-1-benzofuran-2-carboxamide]
12 | 67.3 | 1.41e-06 | CC(C)Nc1ccc(Cl)cc1S(=O)(=O)NC(=O)c1cc2c(F)cc(N3CCC3)cc2o1 [Example 49, 6-(Azetidin-1-yl)-N-{5-chloro-2-[(propan-2-yl)amino]benzene-1-sulfonyl}-4-fluoro-1-benzofuran-2-carboxamide]
13 | 98.7 | 1.42e-06 | O=C(NS(=O)(=O)c1c(F)cccc1NC1CC1)c1cc2c(F)cc(N3CCC3)cc2o1 [Example 50, 6-(Azetidin-1-yl)-N-[2-(cyclopropylamino)-6-fluorobenzene-1-sulfonyl]-4-fluoro-1-benzofuran-2-carboxamide]
14 | 189 | 1.51e-06 | CN(C)C(=O)c1ccccc1S(=O)(=O)NC(=O)c1cc2c(F)cc(N3CCC3)cc2o1 [Example 51, 6-(Azetidin-1-yl)-N-[2-(dimethylcarbamoyl)benzene-1-sulfonyl]-4-fluoro-1-benzofuran-2-carboxamide]
15 | 101 | 1.55e-06 | O=C(NS(=O)(=O)c1ccccc1CCC(F)(F)F)c1cc2c(F)cc(N3CCC3)cc2o1 [Example 52, 6-(Azetidin-1-yl)-4-fluoro-N-[2-(3,3,3-trifluoropropyl)benzene-1-sulfonyl]-1-benzofuran-2-carboxamide]
16 | 698 | 1.58e-06 | Cc1cccc(C(C)C)c1S(=O)(=O)NC(=O)c1cc2c(F)cc(N3CCC3)cc2o1 [Example 53, 6-(Azetidin-1-yl)-4-fluoro-N-[2-methyl-6-(propan-2-yl)benzene-1-sulfonyl]-1-benzofuran-2-carboxamide]
17 | 135 | 1.72e-06 | CCOCc1ccc(Cl)c(S(=O)(=O)NC(=O)c2cc3c(F)cc(N4CCC4)cc3o2)c1 [Example 54, 6-(Azetidin-1-yl)-N-[2-chloro-5-(ethoxymethyl)benzene-1-sulfonyl]-4-fluoro-1-benzofuran-2-carboxamide]
18 | 106 | 1.69e-06 | O=C(NS(=O)(=O)c1ccccc1/C=C/C(F)(F)F)c1cc2c(F)cc(N3CCC3)cc2o1 [Example 55, 6-(Azetidin-1-yl)-4-fluoro-N-{2-[(1E)-3,3,3-trifluoroprop-1-en-1-yl]benzene-1-sulfonyl}-1-benzofuran-2-carboxamide]
19 | 122 | 2.11e-06 | O=C(NS(=O)(=O)c1cccc2nccnc12)c1cc2c(F)cc(N3CCC3)cc2o1 [Example 56, 6-(Azetidin-1-yl)-4-fluoro-N-(quinoxaline-5-sulfonyl)-1-benzofuran-2-carboxamide]
20 | 120 | 2.5e-06 | COC(=O)Cc1ccc2c(S(=O)(=O)NC(=O)c3cc4c(F)cc(N5CCC5)cc4o3)cccc2c1 [Example 57, Methyl (5-{[6-(azetidin-1-yl)-4-fluoro-1-benzofuran-2-carbonyl]sulfamoyl}naphthalen-2-yl)acetate]
21 | 315 | 3.87e-06 | CCCc1cccc(C(F)(F)F)c1S(=O)(=O)NC(=O)c1cc2c(F)cc(N3CCC3)cc2o1 [Example 58, 6-(Azetidin-1-yl)-4-fluoro-N-[2-propyl-6-(trifluoromethyl)benzene-1-sulfonyl]-1-benzofuran-2-carboxamide]
22 | 208 | 4.29e-06 | COCCOc1ccc(Cl)c(S(=O)(=O)NC(=O)c2cc3c(F)cc(N4CCC4)cc3o2)c1 [Example 59, 6-(Azetidin-1-yl)-N-[2-chloro-5-(2-methoxyethoxy)benzene-1-sulfonyl]-4-fluoro-1-benzofuran-2-carboxamide]
23 | 476 | 5.29e-06 | Cc1cnc(Cl)c(S(=O)(=O)NC(=O)c2cc3c(F)cc(N4CCC4)cc3o2)c1 [Example 60, 6-(Azetidin-1-yl)-N-(2-chloro-5-methylpyridine-3-sulfonyl)-4-fluoro-1-benzofuran-2-carboxamide]
24 | 399 | 5.6e-06 | Cc1cccc(C2CCCC2)c1S(=O)(=O)NC(=O)c1cc2c(F)cc(N3CCC3)cc2o1 [Example 61, 6-(Azetidin-1-yl)-N-(2-cyclopentyl-6-methylbenzene-1-sulfonyl)-4-fluoro-1-benzofuran-2-carboxamide]
25 | 131 | 6.48e-06 | O=C(NS(=O)(=O)c1cc(CO)ccc1OC(F)(F)F)c1cc2c(F)cc(N3CCC3)cc2o1 [Example 63, 6-(Azetidin-1-yl)-4-fluoro-N-[5-(hydroxymethyl)-2-(trifluoromethoxy)benzene-1-sulfonyl]-1-benzofuran-2-carboxamide]
26 | 85.1 | 8e-06 | Cc1cccc(O)c1S(=O)(=O)NC(=O)c1cc2c(F)cc(N3CCC3)cc2o1 [Example 64, 6-(Azetidin-1-yl)-4-fluoro-N-(2-hydroxy-6-methylbenzene-1-sulfonyl)-1-benzofuran-2-carboxamide]
27 | 57.1 | 8.32e-06 | COc1cccc2c(S(=O)(=O)NC(=O)c3cc4c(F)cc(N5CCC5)cc4o3)cccc12 [Example 65, 6-(Azetidin-1-yl)-4-fluoro-N-(5-methoxynaphthalene-1-sulfonyl)-1-benzofuran-2-carboxamide]
28 | 135 | 1e-05 | CN(C)c1cccc2c(S(=O)(=O)NC(=O)c3cc4c(F)cc(N5CCC5)cc4o3)cccc12 [Example 66, 6-(Azetidin-1-yl)-N-[5-(dimethylamino)naphthalene-1-sulfonyl]-4-fluoro-1-benzofuran-2-carboxamide]
29 | 345 | 1.1e-05 | COc1cccnc1S(=O)(=O)NC(=O)c1cc2c(F)cc(N3CCC3)cc2o1 [Example 67, 6-(Azetidin-1-yl)-4-fluoro-N-(3-methoxypyridine-2-sulfonyl)-1-benzofuran-2-carboxamide]
